Tested on: patients with chronic constipation
Assay: Clinical trial, secondary efficacy RESP12: increase of 1 or more CSBM/week over baseline after 12 weeks of treatment, by subgroup and genotype
Assay type: in vivo, human
Conditions: for Odds Ratio (T6 v P) / % Responders T6: 6-mg bid
Procedure: Introduction. A clinical trial was performed to evaluate the efficacy of tegaserod (Zelmac®/Zelnorm™) at 6 mg bid (12 mg/day) or 2 mg bid (4 mg/day) vs. placebo by measuring the number of complete spontaneous bowel movements (CSBM) during the first 4 weeks of treatment. Secondary objectives included evaluating the number of CSBM during the entire 12-week treatment period, bowel habits, laxative use, and safety and tolerability issues. The clinical trial design consisted of a 2-week baseline period without medication, a 12-week, randomized, double-blind, placebo-controlled treatment period, and a 4-week withdrawal period without study medication. As part of the clinical trial, DNA was collected from patients at screening for pharmacogenetic analysis to evaluate genetic polymorphisms relating to drug targets and disease aetiology.
Clinical assessments. […] The primary efficacy endpoint evaluated was the increase of 1 or more CSBM/week over baseline after 4 weeks of treatment. A secondary endpoint evaluated in this genotyping study was RESP12, the increase of 1 of more CSBM/week over baseline after 12 weeks of treatment. Patients were classified as responders if they met these criteria and had completed at least 7 days of treatment. Additional secondary efficacy assessments were evaluated based on the weekly diary assessments, such as bothersome constipation, bothersome abdominal pain, and satisfaction with bowel habits at the end of the 12-week treatment period (using the baseline value as a co-variant for analysis).
Statistical analysis. Statistical analysis was performed using SAS version 8.2 (The SAS Institute, Cary, N.C., USA). Analysis methods included Fisher's Exact tests, analysis of Covariance (ANCOVA), logistic regression, and Mantel-Haenzel tests to determine odds ratios and 95% confidence intervals, with significance established at p<0.05. Calculation of linkage disequilibrium was performed using the GOLD (graphical overview of linkage disequilibrium) method described by Abecasis & Cookson, Bioinformatics 16: 182-3 (2000).
Secondary efficacy endpoint: response after 12 weeks of treatment. The same comparison as above was performed using the secondary efficacy endpoint of a mean increase of 1 or more CSBM/week over baseline after 12 weeks of treatment. The results for the 12 individual “high responder” SNPs are presented in TABLE 9 and the results using the comparison of individuals with or without at least one of the twelve SNPs is presented in TABLE 10.

[1] = M + F (<65), 0-12 of the 12 SNPs
[2] = M + F (<65), 1-12 of the 12 SNPs
[3] = M + F (>=65), 0-12 of the 12 SNPs
[4] = M + F (>=65), 1-12 of the 12 SNPs
[5] = M + F (All ages), 0-12 of the 12 SNPs
[6] = M + F (All ages), 0 of the 12 SNPs
[7] = M + F (All ages), 1-12 of the 12 SNPs
[8] = Male (All ages), 0-12 of the 12 SNPs
[9] = Male (All ages), 0 of the 12 SNPs
[10] = Male (All ages), 1-12 of the 12 SNPs

## [H]/N=C(/NCCCCC)N/N=C/c1c[nH]c2ccc(OC)cc12 [tegaserod, Tegaserod]
HTR4 (3753) genotype CC
  Odds Ratio (T6 v P): 3.1
HTR4 (3753) genotype CT
  % Responders T6: 50%
  Odds Ratio (T6 v P): 2.7
HTR4 (3753) genotype TT
  % Responders T6: 70%
  Odds Ratio (T6 v P): 3.5
HTR4 (3754) genotype AA
  % Responders T6: 50%
  Odds Ratio (T6 v P): 4.1
HTR4 (3754) genotype AT
  % Responders T6: 45%
  Odds Ratio (T6 v P): 2.0
HTR4 (3754) genotype TT
  % Responders T6: 63%
  Odds Ratio (T6 v P): 2.8
HTR4 (3756) genotype AA
  % Responders T6: 39%
  Odds Ratio (T6 v P): 2.6
HTR4 (3756) genotype AC
  % Responders T6: 54%
  Odds Ratio (T6 v P): 3.0
HTR4 (3756) genotype CC
  % Responders T6: 71%
  Odds Ratio (T6 v P): 4.6
[1]
  % Responders T6: 49%
  Odds Ratio (T6 v P): 3.0
M + F (<65), 0 of the 12 SNPs
  % Responders T6: 37%
  Odds Ratio (T6 v P): 1.6
[2]
  % Responders T6: 62%
  Odds Ratio (T6 v P): 5.6
[3]
  % Responders T6: 53%
  Odds Ratio (T6 v P): 2.3
M + F (>=65), 0 of the 12 SNPs
  % Responders T6: 29%
  Odds Ratio (T6 v P): 0.4
[4]
  % Responders T6: 70%
  Odds Ratio (T6 v P): 10.1
[5]
  % Responders T6: 49%
  Odds Ratio (T6 v P): 2.8
[6]
  % Responders T6: 36%
  Odds Ratio (T6 v P): 1.3
[7]
  % Responders T6: 63%
  Odds Ratio (T6 v P): 6.0
MLN (1783) genotype CC
  % Responders T6: 49%
  Odds Ratio (T6 v P): 2.6
MLN (1783) genotype CT
  % Responders T6: 44%
  Odds Ratio (T6 v P): 2.2
MLN (1783) genotype TT
  % Responders T6: 67%
  Odds Ratio (T6 v P): 12.0
[8]
  % Responders T6: 57%
  Odds Ratio (T6 v P): 3.0
[9]
  % Responders T6: 40%
  Odds Ratio (T6 v P): 0.8
[10]
  % Responders T6: 73%
  Odds Ratio (T6 v P): 13.3
SCNN1A (3806) genotype GG
  % Responders T6: 62%
  Odds Ratio (T6 v P): 5.9
SCNN1A (3806) genotype GT
  % Responders T6: 49%
  Odds Ratio (T6 v P): 2.6
SCNN1A (3806) genotype TT
  % Responders T6: 44%
  Odds Ratio (T6 v P): 2.2
SLC12A2 (1842) genotype AA
  % Responders T6: 54%
  Odds Ratio (T6 v P): 6.2
SLC12A2 (1842) genotype AG
  % Responders T6: 47%
  Odds Ratio (T6 v P): 2.7
SLC12A2 (1842) genotype GG
  % Responders T6: 50%
  Odds Ratio (T6 v P): 2.5
SLC12A2 (3801) genotype CC
  % Responders T6: 58%
  Odds Ratio (T6 v P): 7.9
SLC12A2 (3801) genotype CT
  % Responders T6: 49%
  Odds Ratio (T6 v P): 2.4
SLC12A2 (3801) genotype TT
  % Responders T6: 50%
  Odds Ratio (T6 v P): 2.9
TPH1 (1756) genotype GG
  % Responders T6: 51%
  Odds Ratio (T6 v P): 6.1
TPH1 (1756) genotype GT
  % Responders T6: 51%
  Odds Ratio (T6 v P): 2.4
TPH1 (1756) genotype TT
  % Responders T6: 45%
  Odds Ratio (T6 v P): 2.2
TPH1 (3784) genotype CC
  % Responders T6: 41%
  Odds Ratio (T6 v P): 1.9
TPH1 (3784) genotype CT
  % Responders T6: 52%
  Odds Ratio (T6 v P): 2.5
TPH1 (3784) genotype TT
  % Responders T6: 51%
  Odds Ratio (T6 v P): 5.8
All genotypes
  % Responders T6: 49%
  Odds Ratio (T6 v P): 2.8
All genotypes (Table 11)
  % Responders T6: 49%
  Odds Ratio (T6 v P): 2.8
High responder genotypes of HTR4, tegaserod-treated patients
  response rate: > 60%

From US20090118350A1, “Biomarkers for Identifying Efficacy of Tegaserod in Patients with Chronic Constipation” (priority 2005, published 2009)
